From patent US12029715B2, “Precursor compounds for providing retinoids of the vitamin A5 pathway and uses thereof” (UNIVERSITY OF DEBRECEN, priority 2015, dated 2024)
Entries after “also recorded” stand apart in the source; their conditions may differ.

Assays:
[1] = system: C57BL/6N mice; assay: Chronic social defeat stress model, sucrose preference test; type: in vivo, mouse; conditions: stressed mice; for sucrose preference deficit, treatments during stress protocol: dose not given at the place
Text: This task, designed to measure hedonic behaviors in mice is based on the palatable nature of sucrose observed in a number of mouse strains. On the first day of the test, sucrose-naive mice were placed in individual cages at 11 am and left there with water and food for habituation period. At 5 pm one water bottle was replaced with two bottles: one containing water and another 0.8% sucrose solution. Three hours later (8 pm) the bottles were weighed to measure liquid consumption and were replaced in cages until morning. The measures of an overnight consumption were then carried out for additional day to evaluate sucrose preference. Mice were not water deprived at any moment, in order to measure spontaneous sucrose preference and exclude any potential emotional confounds induced by stress of water deprivation. The sucrose preference was expressed as the percent of sucrose solution consumed with respect to total liquid consumption.
Social defeat stress procedure was a modified version of the protocol previously described (Berton, McClung et al. 2006). C57BL/6N mice were defeated chronically for 10 consecutive days. Every day they were exposed to the physical contact with an unfamiliar CD1 aggressor in its home cage for maximal interaction time of 5 minutes. After each session of physical stress, C57BL/6N and CD1 mice were separated by a perforated wall and maintained in sensory contact for 24 h. After the last session of stress, mice were transferred into new cages and housed separately throughout the behavioral tests period. C57BL/6N control mice, similarly to the experimental animals, were housed two per cage separated by a metal perforated wall. Every day, they were exposed to the physical contact for 5 minutes.
For behavioral analysis, 9CDHROL and 9CDHBC were dissolved in ethanol, and then mixed with sunflower oil, so that the final solution contained 3% ethanol. Vehicle treatments consisted of 3% ethanol solution in sunflower oil. For memory studies treatments with 9CDHRA were administered by intraperitoneal injections at volume/weight ratio 3 ml/kg at 7 am and 7 hours before the beginning of testing. For tests with animal model of chronic social defeat, different treatments were administered […] day of stress protocol immediately after the stress session starting from day 1 of the stress protocol.
This task, designed to measure hedonic behavior in mice (Moreau, 1997), is based on the palatable nature of sucrose observed in a number of mouse strains. On the first day of the test, sucrose-naive mice were placed in individual cages at 11 am and left there with water and food for habituation period. At 5 pm one water bottle was replaced with two bottles: one containing water and another 0.8% sucrose solution. Three hours later (8 pm) the bottles were weighed to measure liquid consumption and were replaced in cages until morning. The measures of an overnight consumption were then carried out for additional day to evaluate sucrose preference. Mice were not water deprived at any moment, in order to measure spontaneous sucrose preference and exclude any potential emotional confounds induced by stress of water deprivation. The sucrose preference was expressed as the percent of sucrose solution consumed with respect to total liquid consumption.
Social defeat stress procedure was a modified version of the protocol previously described (Berton et al. 2006). C57BL/6N mice were defeated chronically for 10 consecutive days. […]

[2] = system: Rbp1−/−, Rxrγ−/− and WT mice; assay: Delayed non-match to place (DNMTP) working memory task in the T-maze; type: in vivo, mouse
Description: Behaviorally naïve groups of mice were tested in the DNMTP (delayed non-match to place) procedure in the T-maze according to a protocol previously described (Wietrzych et al., 2005), with modifications to facilitate pharmacological tests (Wietrzych-Schindler et al., 2011). Spontaneous alternation was evaluated in the Ymaze apparatus according to protocol described in detail below.
Specifically, in the present protocol, animals were first trained for 10 consecutive days with minimal inter-trial intervals (ITI) of about 15 sec, which was necessary to attain the criterion of 90% or more of correct choices during […] consecutive days (days 9-10). After this period ITI was increased semi-randomly by blocks of 3-6 min during 5 consecutive days (days 11-15 indicated) to determine “test ITI” for each animal, which was defined as the shortest ITI at which mice perform at chance level. From day 16 mice were tested using corresponding “test ITI” delays following vehicle injection on the day 16 (to test for the effect of vehicle alone) and following 9CDHROL (40 mg/kg) injection on day 17. Three mice were excluded from testing since their latency to choose the arm during the retention phase exceeded 3 min in more than one trial/day on three consecutive days (exclusion criterion). On the day 18 mice were again injected (IP) with 9CDHROL (40 mg/kg) and 9 hours later sacrificed for chemical analyses. Mice which received vehicle injections on three consecutive days were used as vehicle-treated controls for analyses of 9CDHROL metabolism. An additional group of 3 naïve mice was also injected with 9CDHROL (40 mg/kg) to test for 9CDHROL metabolism following acute treatment.
In this variant, animals were first trained for 9 consecutive days of with minimal inter-trial intervals (ITI) of about 15 sec, which was necessary to attain the criterion of 90% or more of correct choices during three consecutive days (days 7-9). After this period ITI was increased semi-randomly to 180, 360, 720 and for some WT mice also 1080 seconds so that each animal was tested 6 times with each interval during four consecutive days (days 10-13 indicated). From day 13 mice were tested only twice per week beginning with training session on day one (with minimal, 15 sec ITIs) and testing pharmacological treatments on the second day. Only one pharmacological treatment was tested every 7 days. To test pro-mnemonic activities of UVI2108 and (R)-9CDHRA inventors used a minimal ITI, at which mice performed at chance level (50%) and which was 6 min for the Rbp1−/− or Rxrγ−/− groups and 12 min for most WT mice with exception of two mice tested at 18 min. Four mice (two wild types and one of each knockout line), were excluded from testing since their latency to choose the arm during the retention phase exceeded 3 min in more than one trial/day on three consecutive days (exclusion criterion).
For behavioral analysis, 9CDHROL and 9CDHBC were dissolved in ethanol, and then mixed with sunflower oil, so that the final solution contained 3% ethanol. Vehicle treatments consisted of 3% ethanol solution in sunflower oil. For memory studies treatments with 9CDHRA were administered by intraperitoneal injections at volume/weight ratio 3 ml/kg at 7 am and 7 hours before the beginning of testing. For tests with animal model of chronic social defeat, different treatments were administered by intraperitoneal injections at volume/weight ratio 3 ml/kg at 10 mg/kg for each substance between 5-6 pm every second day of stress protocol immediately after the stress session starting from day 1 of the stress protocol.
Vehicle treatments consisted of 3% ethanol and 3% DMSO solution in sunflower oil. Treatments were administered by intraperitoneal injections at volume/weight ratio 3 ml/kg between 8-10 am and 5-6 h before the test as previously validated (Wietrzych-Schindler M, 2011).

[3] = Rbp1−/− mice, ITI of 6 min, acute treatment, (R)-9CDHRA 1 or 2 mg/kg

CC1=C(/C=C/C(C)=C\C=C\C(C)CCO)C(C)(C)CCC1 (stereo not drawn) [9CDHROL, 9-cis-13,14-dihydroretinol]
sucrose preference (anhedonia) ([1]; 10 mg/kg i.p. every second day of stress protocol, 10 mg/kg): prevented; also recorded: Anhedonia was abolished
working memory performance in DNMTP task ([2]; wild type C57BL6N male mice, 40 mg/kg, 7-9 h after treatment, mean ITI of 13 min, 40 mg/kg): improved working memory performance; also recorded: significantly enhanced memory performance

CC1(C)CCC(C)(C)c2cc(C3(c4ccc(C(=O)O)cc4)OCCO3)ccc21 [UVI2108, reference compound]
sucrose preference deficit, treatments during stress protocol [1]: prevented; also recorded: activities similar to 9CDHRA
working memory performance in DNMTP task [2, 3]: reversed memory deficits
working memory performance in DNMTP task ([2]; Rxrγ−/− mice, ITI of 6 min): remained ineffective

CC1=C(/C=C/C(C)=C\C=C\[C@H](C)CC(=O)O)C(C)(C)CCC1 [(R)-9CDHRA, (9Z,13R)-13,14-Dihydroretinoic Acid]
working memory performance in DNMTP task [2, 3]: reversed working memory deficits; also recorded: improved memory performance
correct choices in DNMTP task ([2]; Rxrγ−/− mice, ITI 6 min): 57±7 % of correct choices
correct choices in DNMTP task ([2]; WT mice, 2 mg/kg, ITI of 12 or 18 min): about 70 % of correct choices
working memory performance in DNMTP task ([2]; WT mice, ITI of 12 or 18 min): showed pro-mnemonic activity; also recorded: raised performance

CC(C=CC1=C(C)CCCC1(C)C)=CC=CC(C)CC(=O)O (stereo not drawn) [9CDHRA, 9-cis-13,14-dihydroretinoic acid]
sucrose preference (anhedonia) ([1]; 1 mg/kg): Anhedonia was abolished
sucrose preference deficit, treatments during stress protocol [1]: prevented
